From patent US8987500B2, “4-biphenyl-substituted pyrazolidin-3,5-dione derivatives” (Bayer CropScience AG, priority 2003, dated 2015)
Each block holds one compound with its values, some of them ahead of it.

Tests used:
[1] = system: Sphaerotheca fuliginea; assay: Sphaerotheca test (cucumber)/protective, Example H; format: in vivo; details: Sphaerotheca fuliginea on cucumber, protective, application rate 750 g/ha, evaluation 7 days after inoculation
Description: Sphaerotheca Test (Cucumber)/Protective [table] To produce a suitable preparation of active compound, 1 part by weight of active compound is mixed with the stated amounts of solvent and emulsifier, and the concentrate is diluted with water to the desired concentration. To test for protective activity, young cucumber plants are sprayed with the preparation of active compound at the stated application rate. 1 day after the treatment, the plants are inoculated with a spore suspension of Sphaerotheca fuliginea. The plants are then placed in a greenhouse at 70% relative atmospheric humidity and a temperature of 23° C. Evaluation is carried out 7 days after the inoculation. 0% means an efficacy which corresponds to that of the control, whereas an efficacy of 100% means that no infection is observed.

[2] = system: Meloidogyne incognita; assay: Meloidogyne test, Example C; format: in vivo; details: Table C, 20 ppm active compound, nematicidal effect by formation of galls
Description: Meloidogyne Test [table] To produce a suitable preparation of active compound, 1 part by weight of active compound is mixed with the stated amounts of solvent, and the concentrate is diluted with water to the desired concentration. Containers are filled with sand, solution of active compound, Meloidogyne incognita egg/larvae suspension and lettuce seeds. The lettuce seeds germinate and the plants develop. On the roots, galls are formed. After the desired period of time, the nematicidal effect is determined in % by the formation of galls. 100% means that no galls have been found; 0% means that the number of galls on the treated plants corresponds to that of the untreated control.

[3] = system: green peach aphid (Myzus persicae); assay: Myzus test (spray treatment), Example D; format: in vivo; details: Table D
Description: Myzus Test (Spray Treatment)
(§1) To produce a suitable preparation of active compound, 1 part by weight of active compound is mixed with the stated amounts of solvents and emulsifier, and the concentrate is diluted with emulsifier-containing water to the desired concentration.
Discs of Chinese cabbage (Brassica pekinensi), which are infested by all stages of the green peach aphid (Myzus persicae) are sprayed with a preparation of active compound of the desired concentration.
After the desired period of time, the activity in % is determined 100% means that all aphids have been killed; 0% means that none of the aphids have been killed.

[4] = system: greenhouse red spider mite (Tetranychus urticae); assay: Tetranychus test (OP-resistant/spray treatment), Example G; format: in vivo; details: Tetranychus urticae (OP-resistant), bean leaf discs, spray treatment, 500 g/ha
Description: Tetranychus Test (OP-Resistant/Spray Treatment)
as §1
Discs of bean leaves (Phaseolus vulgaris) which are infested by all stages of the greenhouse red spider mite (Tetranychus urticae) are sprayed with a preparation of active compound of the desired concentration.
After the desired period of time, the activity in % is determined 100% means that all spider mites have been killed; 0% means that none of the spider mites have been killed.

[5] = system: caterpillars of the army worm (Spodoptera frugiperda); assay: Spodoptera frugiperda test (spray treatment), Example F; format: in vivo; details: maize leaf discs, 500 g/ha
Description: (§2) Spodoptera frugiperda Test (Spray Treatment) [table] To produce a suitable preparation of active compound, 1 part by weight of active compound is mixed with the stated amounts of solvents and emulsifier, and the concentrate is diluted with emulsifier-containing water to the desired concentration. Discs of maize leaves (Zea mays) are sprayed with a preparation of active compound of the desired concentration and, after they have dried, populated with caterpillars of the army worm (Spodoptera frugiperda). After the desired period of time, the activity in % is determined 100% means that all caterpillars have been killed; 0% means that none of the caterpillars have been killed.

[6] = system: larvae of the mustard beetle (Phaedon cochleariae); assay: Phaedon test (spray treatment), Example E; format: in vivo; details: Table E
Description: as §2, with “Phaedon Test” for “Spodoptera frugiperda Test”, “of Chinese cabbage (Brassica pekinensis)” for “of maize leaves (Zea mays)”, “with larvae” for “with caterpillars”, “the mustard beetle (Phaedon cochleariae).” for “the army worm (Spodoptera frugiperda).”, “all beetle larvae” for “all caterpillars”, “the beetle larvae” for “the caterpillars”

[7] = system: monocotyledonous and dicotyledonous weed and crop plants; assay: Herbicidal post-emergence action, Example J; format: in vivo; details: Greenhouse, 320 g a.i./ha, about 3 weeks
Description: Herbicidal Post-Emergence Action Seeds of monocotyledonous and dicotyledonous weed and crop plants are placed into sandy loam in woodfibre pots, covered with soil and cultivated in a greenhouse under good growth conditions. 2-3 weeks after sowing, the test plants are treated at the one-leaf stage. The test compounds formulated as wettable powders (WP) are, in various dosages with a water application rate of 600 l/ha (converted), with 0.2% of wetting agent added, sprayed onto the green parts of the plants. After the test plants have been kept in the greenhouse under optimum growth conditions for about 3 weeks, the effect of the preparations is rated visually in comparison to untreated controls (herbicidal effect in percent (%): 100% effect=plants have died, 0% effect=like control plants).

[8] = system: larvae of the mustard beetle (Phaedon cochleariae); assay: Phaedon test (spray treatment), Example A; format: in vivo; details: Table A, 500 g/ha active compound
Description: as §2, with “Phaedon Test” for “Spodoptera frugiperda Test”, “of Chinese cabbage (Brassica pekinensis)” for “of maize leaves (Zea mays)”, “with larvae” for “with caterpillars”, “the mustard beetle (Phaedon cochleariae).” for “the army worm (Spodoptera frugiperda).”, “all beetle larvae” for “all caterpillars”, “the beetle larvae” for “the caterpillars”

[9] = system: caterpillars of the army worm (Spodoptera frugiperda); assay: Spodoptera frugiperda test (spray treatment), Example B; format: in vivo; details: Table B, 500 g/ha active compound
Description: as §2

SMILES: Cc1ccc(-c2cccc(Cl)c2)cc1-c1c(OC(=O)C(C)(C)C)n2n(c1=O)CCCC2 [Ex. I-1-b-3]
- Efficacy in % [1]: 90%

SMILES: CCOC(=O)Oc1c(-c2cc(-c3ccc(F)cc3)ccc2C)c(=O)n2n1CCOCC2 [Ex. I-2-c-6]
- Effect in % after 14d [2]: 90%
- Kill rate in % after 5d ([3]; 100 g/ha active compound): 100%

SMILES: Cc1ccc(-c2ccc(F)cc2)cc1-c1c(OC(=O)C2CC2)n2n(c1=O)CCCC2 [Ex. I-1-b-33]
- Kill rate in % after 5d ([3]; 100 g/ha active compound): 100%

SMILES: CCOC(=O)Oc1c(-c2cc(-c3ccc(F)c(Cl)c3)ccc2C)c(=O)n2n1CCCC2 [Ex. I-1-c-17]
- Kill rate in % after 5d [4]: 100%
- Kill rate in % after 7d [5]: 83%

SMILES: CCOC(=O)Oc1c(-c2cc(-c3ccc(F)cc3F)ccc2C)c(=O)n2n1CCCC2 [Ex. I-1-c-15]
- Kill rate in % after 7d ([6]; 500 g/ha active compound): 100%
- Kill rate in % after 5d [4]: 100%
- Kill rate in % after 5d ([3]; 500 g/ha active compound): 100%

SMILES: Cc1ccc(-c2cc(Cl)cc(Cl)c2)cc1-c1c(OC(=O)C(C)(C)C)n2n(c1=O)CCCC2 [Ex. I-1-b-14]
- Kill rate in % after 5d ([3]; 500 g/ha active compound): 100%

SMILES: CCOC(=O)Oc1c(-c2cc(-c3cc(F)ccc3F)ccc2C)c(=O)n2n1CCOCC2 [Ex. I-2-c-16]
- Kill rate in % after 5d ([3]; 500 g/ha active compound): 100%

SMILES: CCOC(=O)Oc1c(-c2cc(-c3ccc(C(F)(F)F)cc3)ccc2C)c(=O)n2n1CCCC2 [Ex. I-1-c-19]
- herbicidal effect in percent, Avena fatua [7]: 70%
- herbicidal effect in percent, Lolium [7]: 80%
- herbicidal effect in percent, Setaria [7]: 100%

SMILES: Cc1ccc(-c2ccc(F)cc2F)cc1-c1c(OC(=O)C(C)(C)C)n2n(c1=O)CCOCC2 [Ex. I-2-b-15]
- Kill rate in % after 5d ([3]; 500 g/ha active compound): 100%
- Kill rate in % after 7d [5]: 100%

SMILES: Cc1ccc(-c2cc(Cl)ccc2Cl)cc1-c1c(O)n2n(c1=O)CCCC2 [Example I-1-a-12]
- herbicidal effect in percent, Avena fatua [7]: 80%
- herbicidal effect in percent, Lolium [7]: 70%
- herbicidal effect in percent, Setaria [7]: 70%

SMILES: Cc1ccc(-c2ccc(Cl)cc2Cl)cc1-c1c(OC(=O)C(C)(C)C)n2n(c1=O)CCCC2 [Ex. I-1-b-11]
- Kill rate in % after 5d ([3]; 500 g/ha active compound): 100%
- Kill rate in % after 7d [5]: 100%

SMILES: COc1ccccc1-c1ccc(C)c(-c2c(OC(=O)C(C)(C)C)n3n(c2=O)CCOCC3)c1 [Ex. I-2-b-21]
- Kill rate in % after 5d ([3]; 500 g/ha active compound): 100%

SMILES: Cc1ccc(-c2ccc(Cl)cc2)cc1-c1c(O)n2n(c1=O)CCCC2 [Example I-1-a-4]
- Kill rate in % after 7d [8]: 100%

SMILES: Cc1ccc(-c2ccc(F)c(Cl)c2)cc1-c1c(OC(=O)C(C)(C)C)n2n(c1=O)CCCC2 [Ex. I-1-b-17]
- Kill rate in % after 5d ([3]; 500 g/ha active compound): 90%
- Kill rate in % after 7d [5]: 100%

SMILES: Cc1ccc(-c2ccc(F)cc2)cc1-c1c(OC(=O)C(C)(C)C)n2n(c1=O)CCCC2 [Example I-1-b-1]
- Effect in % after 14d [2]: 90%
- Kill rate in % after 7d ([6]; 500 g/ha active compound): 100%
- Efficacy in % [1]: 94%

SMILES: Cc1cc(C)c(-c2c(O)n3n(c2=O)CCOCC3)c(C)c1-c1ccc(F)cc1 [Example I-2-a-32]
- Kill rate in % after 5d ([3]; 500 g/ha active compound): 90%

SMILES: CCOC(=O)Oc1c(-c2cc(-c3ccc(F)cc3)ccc2C)c(=O)n2n1CCCC2 [Example I-1-c-1]
- Kill rate in % after 7d ([6]; 100 g/ha active compound): 100%
- herbicidal effect in percent, Avena fatua [7]: 90%
- herbicidal effect in percent, Lolium [7]: 90%
- herbicidal effect in percent, Setaria [7]: 80%
- Kill rate in % after 5d ([3]; 100 g/ha active compound): 100%
- Efficacy in % [1]: 80%

SMILES: Cc1ccc(-c2ccc(Cl)cc2)cc1-c1c(OC(=O)C(C)C)n2n(c1=O)CCOCC2 [Ex. I-2-b-31]
- Kill rate in % after 5d ([3]; 500 g/ha active compound): 100%

SMILES: Cc1ccc(-c2ccc(C(F)(F)F)cc2)cc1-c1c(OC(=O)C(C)(C)C)n2n(c1=O)CCCC2 [Ex. I-1-b-20]
- herbicidal effect in percent, Avena fatua [7]: 80%
- herbicidal effect in percent, Lolium [7]: 80%
- herbicidal effect in percent, Setaria [7]: 90%

- melting point: 172 °C
SMILES: Cc1ccc(-c2ccc(F)cc2)cc1-c1c(O)n2n(c1=O)CCCC2 [Example I-1-a-1]
- Effect in % after 14d [2]: 80%

SMILES: Cc1ccc(-c2cccc([N+](=O)[O-])c2)cc1-c1c(OC(=O)C(C)(C)C)n2n(c1=O)CCCC2 [Ex. I-1-b-26]
- Kill rate in % after 5d ([3]; 500 g/ha active compound): 100%

SMILES: COc1cccc(-c2ccc(C)c(-c3c(O)n4n(c3=O)CCCC4)c2)c1 [Example I-1-a-22]
- herbicidal effect in percent, Amaranthus ([7]; Amaranthus): 70%
- herbicidal effect in percent, Lolium [7]: 100%
- herbicidal effect in percent, Setaria [7]: 90%

SMILES: CCOC(=O)Oc1c(-c2cc(-c3ccc(Cl)cc3)ccc2C)c(=O)n2n1CCCC2 [Ex. I-1-c-4]
- Kill rate in % after 7d [9]: 100%

SMILES: Cc1ccc(-c2ccc(C(C)C)cc2)cc1-c1c(OC(=O)C(C)(C)C)n2n(c1=O)CCCC2 [Ex. I-1-b-30]
- Kill rate in % after 5d ([3]; 500 g/ha active compound): 100%

SMILES: Cc1ccc(-c2ccc(C(C)C)cc2)cc1-c1c(OC(=O)C(C)(C)C)n2n(c1=O)CCOCC2 [Ex. I-2-b-30]
- Kill rate in % after 5d ([3]; 500 g/ha active compound): 100%

SMILES: Cc1ccc(-c2ccc(Cl)cc2)cc1-c1c(OC(=O)C(C)(C)C)n2n(c1=O)CCCC2 [Ex. I-1-b-4]
- Kill rate in % after 7d ([6]; 500 g/ha active compound): 100%
- Kill rate in % after 5d [4]: 100%
- Kill rate in % after 7d [9]: 100%

SMILES: Cc1ccc(-c2ccc(Cl)c(Cl)c2)cc1-c1c(OC(=O)C(C)(C)C)n2n(c1=O)CCOCC2 [Ex. I-2-b-13]
- Kill rate in % after 5d ([3]; 500 g/ha active compound): 100%
